Data published in the CheMixHub ionic liquid set.
Values joined by “and” are separate entries in the source; they are usually repeats but may differ in a detail not shown here. Identical values can stand only once.

Experiment: xn = mol fraction of the nth substance listed

CC[n+]1ccccc1.[Cl-] + CCCC[n+]1ccccc1.[Br-]
viscosity [mPa·s], 101 kPa
Conditions	x1 = 0.118	x1 = 0.197	x1 = 0.318	x1 = 0.384	x1 = 0.492	x1 = 0.585	x1 = 0.686	x1 = 0.81	x1 = 0.902
373.1 K	–	–	–	61	54.1	48.8	43.7	38	–
378.1 K	–	–	53.6	50.2	44.7	40.6	36.5	32	–
383.1 K	53.8	49.7	44	41.4	37.1	33.8	30.6	27.1	–
388.1 K	44	40.8	36.4	34.3	31	28.4	25.8	23	20.9
393.1 K	36.2	33.7	30.3	28.6	26	24	21.9	19.7	18
398.1 K	30	28.1	25.4	24.1	22	20.4	18.8	17	15.59
403.1 K	25.1	23.6	21.5	20.5	18.8	17.5	16.19	14.73	13.59
408.1 K	21.2	20.1	18.4	17.5	16.2	15.19	14.08	12.9	11.96
413.1 K	18.2	17.2	15.87	15.16	14.1	13.27	12.36	11.39	10.58
418.1 K	15.69	14.92	13.82	13.25	12.37	11.7	10.93	10.12	9.43
423.1 K	13.69	13.06	12.15	11.69	10.96	10.4	9.75	9.08	8.49
428.1 K	12.07	11.55	10.79	10.4	9.79	9.32	8.77	8.21	7.68
433.1 K	10.76	10.32	9.68	9.35	8.83	8.44	7.96	7.48	7.02
438.1 K	9.69	9.31	8.77	8.48	8.04	7.7	7.29	6.88	6.46
443.1 K	8.82	8.5	8.03	7.78	7.39	7.11	6.74	6.38	6

c1ccccc1 + CCCC[n+]1ccn(C)c1.N#C[S-]
100 kPa, x1 = 1
Conditions	viscosity [mPa·s]
298.15 K	0.605
308.15 K	0.527
318.15 K	0.466
328.15 K	0.363

CC[n+]1ccn(C)c1.O=S(=O)([N-]S(=O)(=O)C(F)(F)F)C(F)(F)F + CC[n+]1ccn(C)c1.F[B-](F)(F)F
100 kPa
Conditions	electrical conductivity [S/m]	viscosity [mPa·s]
243.15 K, x1 = 0.2	0.039	–
243.15 K, x1 = 0.3	0.043	–
243.15 K, x1 = 0.4	0.033	–
243.15 K, x1 = 0.5	0.038	–
243.15 K, x1 = 0.6	0.023	–
243.15 K, x1 = 0.7	0.046	–
243.15 K, x1 = 0.8	0.028	–
243.15 K, x1 = 1	0.011	–
248.15 K, x1 = 0.2	0.062	–
248.15 K, x1 = 0.3	0.068	–
248.15 K, x1 = 0.4	0.053	–
248.15 K, x1 = 0.5	0.06	–
248.15 K, x1 = 0.6	0.039	–
248.15 K, x1 = 0.7	0.072	–
248.15 K, x1 = 0.8	0.045	–
248.15 K, x1 = 1	0.019	–
253.15 K, x1 = 0.2	0.094	478
253.15 K, x1 = 0.3	0.102	485
253.15 K, x1 = 0.4	0.081	468
253.15 K, x1 = 0.5	0.09	460
253.15 K, x1 = 0.6	0.061	–
253.15 K, x1 = 0.7	0.107	435
253.15 K, x1 = 0.8	0.069	403
253.15 K, x1 = 1	0.031	350
258.15 K, x1 = 0.2	0.136	–
258.15 K, x1 = 0.3	0.146	–
258.15 K, x1 = 0.4	0.118	–
258.15 K, x1 = 0.5	0.13	–
258.15 K, x1 = 0.6	0.091	–
258.15 K, x1 = 0.7	0.152	–
258.15 K, x1 = 0.8	0.099	–
258.15 K, x1 = 1	0.047	–
263.15 K, x1 = 0.2	0.19	226
263.15 K, x1 = 0.3	0.202	229
263.15 K, x1 = 0.4	0.166	222
263.15 K, x1 = 0.5	0.18	220
263.15 K, x1 = 0.6	0.131	–
263.15 K, x1 = 0.7	0.208	208
263.15 K, x1 = 0.8	0.138	193
263.15 K, x1 = 1	0.07	173
268.15 K, x1 = 0.2	0.255	–
268.15 K, x1 = 0.3	0.27	–
268.15 K, x1 = 0.4	0.226	–
268.15 K, x1 = 0.5	0.242	–
268.15 K, x1 = 0.6	0.18	–
268.15 K, x1 = 0.7	0.276	–
268.15 K, x1 = 0.8	0.186	–
268.15 K, x1 = 1	0.099	–
273.15 K, x1 = 0.2	0.334	122
273.15 K, x1 = 0.3	0.351	124
273.15 K, x1 = 0.4	0.298	120
273.15 K, x1 = 0.5	0.316	120
273.15 K, x1 = 0.6	0.241	–
273.15 K, x1 = 0.7	0.357	114
273.15 K, x1 = 0.8	0.243	105
273.15 K, x1 = 1	0.135	96.5
278.15 K, x1 = 0.2	0.427	–
278.15 K, x1 = 0.3	0.445	–
278.15 K, x1 = 0.4	0.383	–
278.15 K, x1 = 0.5	0.403	–
278.15 K, x1 = 0.6	0.314	–
278.15 K, x1 = 0.7	0.452	–
278.15 K, x1 = 0.8	0.31	–
278.15 K, x1 = 1	0.179	–
283.15 K, x1 = 0.2	0.533	72.6
283.15 K, x1 = 0.3	0.553	74
283.15 K, x1 = 0.4	0.481	72.4
283.15 K, x1 = 0.5	0.503	72.1
283.15 K, x1 = 0.6	0.4	–
283.15 K, x1 = 0.7	0.559	69.1
283.15 K, x1 = 0.8	0.388	63.8
283.15 K, x1 = 1	0.232	59.3
288.15 K, x1 = 0.2	0.654	–
288.15 K, x1 = 0.3	0.674	–
288.15 K, x1 = 0.4	0.594	–
288.15 K, x1 = 0.5	0.617	–
288.15 K, x1 = 0.6	0.499	–
288.15 K, x1 = 0.7	0.68	–
288.15 K, x1 = 0.8	0.475	–
288.15 K, x1 = 1	0.294	–
293.15 K, x1 = 0.2	0.79	46.7
293.15 K, x1 = 0.3	0.81	47.9
293.15 K, x1 = 0.4	0.721	47
293.15 K, x1 = 0.5	0.744	47
293.15 K, x1 = 0.6	0.612	–
293.15 K, x1 = 0.7	0.815	45.3
293.15 K, x1 = 0.8	0.574	41.7
293.15 K, x1 = 1	0.365	39.2
298.15 K, x1 = 0.2	0.939	–
298.15 K, x1 = 0.3	0.958	–
298.15 K, x1 = 0.4	0.862	–
298.15 K, x1 = 0.5	0.885	–
298.15 K, x1 = 0.6	0.738	–
298.15 K, x1 = 0.7	0.963	–
298.15 K, x1 = 0.8	0.682	–
298.15 K, x1 = 1	0.447	–
303.15 K, x1 = 0.2	–	32
303.15 K, x1 = 0.3	–	33
303.15 K, x1 = 0.4	–	32.5
303.15 K, x1 = 0.5	–	32.5
303.15 K, x1 = 0.7	–	31.5
303.15 K, x1 = 0.8	–	29
303.15 K, x1 = 1	–	27.4
313.15 K, x1 = 0.2	–	23
313.15 K, x1 = 0.3	–	23.9
313.15 K, x1 = 0.4	–	23.6
313.15 K, x1 = 0.5	–	23.6
313.15 K, x1 = 0.7	–	23
313.15 K, x1 = 0.8	–	21.1
313.15 K, x1 = 1	–	20.1
323.15 K, x1 = 0.2	–	17.3
323.15 K, x1 = 0.3	–	18
323.15 K, x1 = 0.4	–	17.8
323.15 K, x1 = 0.5	–	17.8
323.15 K, x1 = 0.7	–	17.5
323.15 K, x1 = 0.8	–	16
323.15 K, x1 = 1	–	15.3
333.15 K, x1 = 0.2	–	13.4
333.15 K, x1 = 0.3	–	14.1
333.15 K, x1 = 0.4	–	13.9
333.15 K, x1 = 0.5	–	13.9
333.15 K, x1 = 0.7	–	13.8
333.15 K, x1 = 0.8	–	12.6
333.15 K, x1 = 1	–	12.1

CO + CCCC[n+]1ccn(C)c1.F[B-](F)(F)F
101 kPa, x1 = 1
Conditions	viscosity [mPa·s]
303.15 K	0.519
333.15 K	0.363

CCCCCCCCCC(=O)[O-].CCCCCCCCCCCCCC[P+](CCCCCC)(CCCCCC)CCCCCC + CCCC(=O)O + O
298 K, 100 kPa
Conditions	viscosity [mPa·s]
x2 = 0, x3 = 0.8754	96
x2 = 0.02766, x3 = 0.8266	95
x2 = 0.04982, x3 = 0.8036	97
x2 = 0.3259, x3 = 0.4715	100
x2 = 0.4065, x3 = 0.3936	96
x2 = 0.4564, x3 = 0.3488	91
x2 = 0.4978, x3 = 0.3385	78

CC[n+]1ccn(C)c1.F[B-](F)(F)F + CS(C)=O
Conditions	electrical conductivity	viscosity [mPa·s]
293.15 K, 100 kPa, x2 = 0.4781	–	19.1
298.1 K, 100 kPa, x1 = 0.021	0.55 S/m and 0.79 S/m	–
298.1 K, 100 kPa, x1 = 0.218	1.77 S/m	–
298.1 K, 100 kPa, x1 = 0.381	1.56 S/m	–
298.1 K, 100 kPa, x1 = 0.623	1.37 S/m	–
298.15 K, 100 kPa, x2 = 0.4098	–	19.1
303.15 K, 100 kPa, x2 = 0.7866	–	4.91
303.15 K, 101 kPa, x2 = 0.2996	–	17.26
303.15 K, 101 kPa, x2 = 0.6002	–	8.52
303.15 K, 101 kPa, x2 = 0.7996	–	4.395
313.15 K, 100 kPa, x2 = 0	–	24.8
313.15 K, 100 kPa, x2 = 0.2931	–	15.4
313.15 K, 101 kPa, x2 = 0.2996	–	12.88
323.15 K, 101 kPa, x2 = 0.4	–	8.2
323.15 K, 101 kPa, x2 = 0.9002	–	1.996
333.15 K, 101 kPa, x2 = 0.9002	–	1.71
343.15 K, 100 kPa, x2 = 0	–	11.7
343.15 K, 100 kPa, x2 = 0.2931	–	7.6
343.15 K, 100 kPa, x2 = 0.8959	–	1.61
353.15 K, 100 kPa, x2 = 0.4781	–	4.48

CC[n+]1ccn(C)c1.F[B-](F)(F)F + CO
viscosity [mPa·s], 101 kPa
Conditions	x1 = 0.0999	x1 = 0.2	x1 = 0.3	x1 = 0.3996	x1 = 0.5005	x1 = 0.5973	x1 = 0.7011	x1 = 0.8013	x1 = 0.8995	x1 = 1
303.15 K	0.945	1.6	2.45	3.62	5.25	7.32	10.4	14.5	20	28
313.15 K	0.822	1.36	2.08	3.03	4.34	5.96	8.24	11.2	15.1	20.4
323.15 K	0.718	1.19	1.79	2.6	3.67	4.96	6.82	8.97	11.7	15.3
333.15 K	0.636	1.06	1.6	2.3	3.24	4.25	5.74	7.47	9.43	12.1

CC[n+]1ccn(C)c1.F[B-](F)(F)F + CCCCCC[n+]1ccn(C)c1.F[B-](F)(F)F
101 kPa, x1 = 1
Conditions	viscosity [mPa·s]
299.15 K	34.52
308.15 K	25.54

CC[n+]1ccn(C)c1.O=S(=O)([N-]S(=O)(=O)C(F)(F)F)C(F)(F)F + CCOS(=O)(=O)[O-].CC[n+]1ccn(C)c1
298.15 K, 100 kPa
Conditions	viscosity [mPa·s]
x1 = 0.1042	95.6
x1 = 0.2975	84.1

OC[C@@H](O)[C@@H](O)[C@H](O)[C@@H](O)CO + CC(=O)[O-].CC[n+]1ccn(C)c1
303.15 K, 100 kPa
Conditions	viscosity [mPa·s]
x1 = 0.1894	283
x1 = 0.5836	2256

CC[n+]1ccn(C)c1.O=S(=O)([N-]S(=O)(=O)C(F)(F)F)C(F)(F)F + OCCOCCOCCOCCO
Conditions	viscosity [mPa·s]
298.15 K, 101 kPa, x2 = 0	32.3
